# What was measured:
# A549 cells [1] = experiment: Annexin V-FITC/propidium iodide flow cytometry on A549; assay type: cell-based, human; conditions: A549 cell line, IC50 concentration; for % Early Apoptotic / % Late Apoptotic / % Necrotic / % Viable: 24 h
# Description: (§1) Evaluation of apoptosis was carried out through the Annexin V-FITC Apoptosis Detection Kit from BD, Pharmingen, according to the manufacturer’s instruction. […] Then cells were rinsed with cold water twice and resuspended in Annexin V-FITC binding buffer at a concentration of 1 × 10^6 cells/mL. […] of Annexin V-FITC was used to stain the cells. After 15 min of incubation at 25 °C, the cell suspension was centrifugated for 5 min and cells were resuspended in Annexin V-FITC binding buffer. Propidium iodide ([…]) was added and the tubes were situated on ice and away from light. The fluorescence was measured using a flow cytometer. The results were analyzed by using FCSExpress software and represented as percentage of normal and apoptotic cells at various stages. […] The four areas in the diagrams stand for necrotic cells (Q1, positive for PI and negative for annexin/FITC, left square on the top), live cells (Q3, negative for annexin and PI, left square at the bottom), late apoptotic or necrotic cells (Q2, positive for annexin and PI, right square on the top) and apoptotic cells (Q4, negative for PI and positive for annexin, right square at the bottom), respectively. The experiment was repeated three times.
# [2] = target: butyrylcholinesterase (BuChE) (Homo sapiens, UniProt P06276); experiment: biochemical; conditions: 80 µg/mL (~160 µM)
# butyrylcholinesterase (BuChE), sequence (P06276 29-602): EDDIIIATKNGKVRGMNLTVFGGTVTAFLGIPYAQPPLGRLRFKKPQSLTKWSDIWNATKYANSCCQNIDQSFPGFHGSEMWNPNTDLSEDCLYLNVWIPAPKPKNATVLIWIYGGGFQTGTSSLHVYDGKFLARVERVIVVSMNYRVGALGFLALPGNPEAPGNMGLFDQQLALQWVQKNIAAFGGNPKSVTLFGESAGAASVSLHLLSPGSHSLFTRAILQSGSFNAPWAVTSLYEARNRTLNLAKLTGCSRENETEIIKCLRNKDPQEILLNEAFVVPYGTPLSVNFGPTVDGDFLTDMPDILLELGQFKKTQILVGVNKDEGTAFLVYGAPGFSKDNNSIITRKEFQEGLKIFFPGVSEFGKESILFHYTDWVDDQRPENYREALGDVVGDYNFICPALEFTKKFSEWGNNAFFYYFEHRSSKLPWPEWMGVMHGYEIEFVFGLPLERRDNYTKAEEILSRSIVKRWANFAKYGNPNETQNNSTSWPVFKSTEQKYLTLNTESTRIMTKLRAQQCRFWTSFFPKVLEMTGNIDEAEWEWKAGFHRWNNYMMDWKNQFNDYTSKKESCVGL
# Description: (§2) In order to determine the acetyl- and butyrylcholinesterase enzyme inhibitions, experiments were carried out by making some changes in the method developed by Ellman. Samples were prepared by dissolving in the appropriate solvent. Adding 20 μL enzyme solution (AChE or BuChE, 1 U/mL) and 10 μL sample solution to 2.4 mL buffer solution and it was incubated for 15 min at 37 °C. After incubation, 50 μL DTNB and 75 mM ATCI solution or 20 μL of 25 mM BTCI solution were added and allowed the mixture to incubate at room temperature for 30 min. For the control group, only 10 μL of solvent was added instead of the sample solution provided all protocols are the same. […] Experiments were run in triplicate. The inhibition fractions of AChE […] BuChE enzymes were calculated using the following equation:I(%) = 100 − ([…]) × 100
# [3] = target: acetylcholinesterase (AChE) (Homo sapiens, UniProt P22303); experiment: biochemical; conditions: 80 µg/mL (~160 µM)
# acetylcholinesterase (AChE), sequence (P22303 32-614, species assumed): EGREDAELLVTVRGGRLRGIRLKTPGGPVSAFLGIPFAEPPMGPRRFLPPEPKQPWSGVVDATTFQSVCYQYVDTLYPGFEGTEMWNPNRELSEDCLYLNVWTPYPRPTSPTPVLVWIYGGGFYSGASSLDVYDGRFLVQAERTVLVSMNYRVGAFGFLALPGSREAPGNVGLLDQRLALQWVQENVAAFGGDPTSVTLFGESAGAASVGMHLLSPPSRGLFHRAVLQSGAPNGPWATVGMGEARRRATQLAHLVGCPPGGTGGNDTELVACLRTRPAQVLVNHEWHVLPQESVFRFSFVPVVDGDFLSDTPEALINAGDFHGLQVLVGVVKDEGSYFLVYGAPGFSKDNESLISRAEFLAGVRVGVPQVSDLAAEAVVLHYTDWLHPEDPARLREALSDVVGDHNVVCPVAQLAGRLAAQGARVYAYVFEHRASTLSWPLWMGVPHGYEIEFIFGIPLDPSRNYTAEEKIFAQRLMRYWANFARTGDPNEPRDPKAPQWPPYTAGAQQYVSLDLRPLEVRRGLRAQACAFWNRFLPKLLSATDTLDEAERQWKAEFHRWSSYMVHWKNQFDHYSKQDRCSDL
# Description: as §2
# [4] = test system: mouse embryoblast cell line (NIH/3T3); experiment: MTT cytotoxicity assay on NIH/3T3 (healthy cells); assay type: cell-based; conditions: NIH3T3, 24 h incubation
# Description: (§3) This is a colorimetric assay that measures the reduction of 3-(4,5-dimethylthiazol-2-yl)-2,4,diphenyltetrazolium bromide (MTT) by mitochondria. All final compounds were tested against human breast adenocarcinoma cell line (MCF-7), human lung carcinoma cell line (A549) and mouse embryooblast cell line (NIH/3T3) to determine their cytotoxic profile. Cancer cells were cultured in RPMI medium (Hyclone, Thermo Scientific, Waltham, MA, USA) at 37 °C in a humidified atmosphere of 95% air and 5% CO2. The studied cells were situated at 2 × 10^4 cells into each well of 96-well microtiter tissue culture plates (Nunc, Denmark) and incubated for 24 h. After that, test compounds were dissolved in DMSO and added to culture wells at varying concentrations (85–1000 µM). After a 24 h incubating period, […] MTT solution (5 mg/mL MTT powder in PBS) was added to each well and the cells were incubated for 4 h at 37 °C. The purple formazan crystals produced were dissolved in DMSO and the absorbance was read by ELISA reader (OD570 nm). The percent values of cell proliferations were calculated relative to controls, whose cell proliferations were accepted as 100% [47].
# A549 cells [5] = experiment: DNA synthesis inhibition (BrdU) on A549
# Description: The 5-bromo-2′-deoxy-uridine (BrdU) cell proliferation assay [48] was used to detect the proliferation of A549 and C6 cells. […] At the end of each day, the cells were labelled with 10 mL BrdU solution for 2 h and then fixed. Anti-BrdU-POD (100 mL) was added and incubated for 90 min. Finally, microtiter plates were washed with phosphate buffered saline (PBS) three times and the cells were incubated with substrate solution until the color was sufficient for photometric detection. […] The growth percentage was evaluated spectrophotometrically versus untreated controls with used cell viability of growth assay. Results for each spectrophotometrical measure were noticed as percent of growth inhibition. All experiments were done in triplicates.
# Mean percent absorbance of untreated control cells were assumed 0%. […] Data points represent means for three independent wells ± SD. p < 0.05.
# [6] = test system: human lung carcinoma cell line (A549); experiment: MTT cytotoxicity assay on A549; assay type: cell-based; conditions: for IC50: MTT, 24 h incubation; for SI A549 (selectivity index): NIH/3T3 versus A549
# Description: as §3
# [7] = test system: human breast adenocarcinoma cell line (MCF-7); experiment: MTT cytotoxicity assay on MCF-7; assay type: cell-based; conditions: for IC50: MTT, 24 h incubation; for SI MCF-7 (selectivity index): NIH/3T3 versus MCF-7
# Description: as §3
# MCF-7 cells [8] = experiment: Annexin V-FITC/propidium iodide flow cytometry on MCF-7; assay type: cell-based, human; conditions: MCF-7 cell line, IC50 concentration
# Description: as §1
# MCF-7 cells [9] = experiment: DNA synthesis inhibition (BrdU) on MCF-7
SMILES,apoptosis (early + late apoptotic cell percentage) A549 (A549 cells [1]),% Early Apoptotic (A549 cells [1]),% Late Apoptotic (A549 cells [1]),% Necrotic (A549 cells [1]),% Viable (A549 cells [1]),inhibition at 160 µM [3],IC50 [4],"IC50 ([6]; Homo sapiens, A549)",SI A549 (selectivity index) [6],"IC50 ([7]; Homo sapiens, MCF7)",SI MCF-7 (selectivity index) [7],apoptosis (early + late apoptotic cell percentage) MCF-7 (MCF-7 cells [8]),% Early Apoptotic (MCF-7 cells [8]; 24 h),% Late Apoptotic (MCF-7 cells [8]; 24 h),% Necrotic (MCF-7 cells [8]; 24 h),other results
"O=C(COc1ccc2c(c1)CCCC2)N/N=c1\scc(-c2ccc(F)cc2)n1-c1ccccc1 [Compound 4h, N′-[3-Phenyl-4-(4-florophenyl)thiazole-2(3H)-ylidene]-2-[(5,6,7,8-tetrahydronaphthalen-2-yl)oxy]acetohydrazide]",over 50%,23.7%,26.4%,4.0%,45.9%,49.9 ± 1.44%,247 ± 12.2 µM,48.6 ± 6 µM,5.1,243 ± 14.9 µM,1.0,–,–,–,–,"inhibition at 80 µg/mL [2]: < 0%; inhibition at 48.6 µM (A549 cells [5]; Homo sapiens, A549, 4 h, read-out: DNA synthesis inhibition on A549 at IC50, IC50 concentration (4h 48.6 μM; cisplatin 108.3 μM)): 50.8%"
"N.N.[Cl][Pt][Cl] [Cisplatin, cisplatin, reference compound]",40.2%,14.9%,25.3%,6.7%,–,–,–,–,–,–,–,29.9%,2.8%,27.1%,28.1%,DNA synthesis inhibition on A549 at IC50/2 (A549 cells [5]; IC50/2 concentration (4h 24.3 μM; cisplatin 54.2 μM)): 32.86%; DNA synthesis inhibition on A549 at IC50 (A549 cells [5]; IC50 concentration (4h 48.6 μM; cisplatin 108.3 μM)): 50.33%; IC50 [6]: 108 ± 11.8 µM; IC50 [7]: 100 ± 3.3 µM
"COc1ccc(-c2csc(=NNC(=O)COc3ccc4c(c3)CCCC4)n2C2CCCCC2)cc1 [Compound 4b, N′-[3-Cyclohexyl-4-(4-methoxyphenyl)thiazole-2(3H)-ylidene]-2-[(5,6,7,8-tetrahydronaphthalen-2-yl)oxy]acetohydrazide]",73.6%,6.6%,67.0%,15.6%,10.9%,11.1 ± 1.48%,55.7 ± 1.2 µM,138 ± 7.2 µM,0.4,69.2 ± 5.8 µM,0.8,29.8%,0.7%,29.1%,63.8%,"% Viable (MCF-7 cells [8]; 24 h): 6.3%; inhibition at 160 µM [2]: 15.9 ± 1.72%; inhibition at 69.2 µM (MCF-7 cells [9]; Homo sapiens, MCF7, 96 h, read-out: DNA synthesis inhibition on MCF-7 at IC50): 48.5%; DNA synthesis inhibition on MCF-7 at IC50/2 (MCF-7 cells [9]; IC50/2 concentration (4b 34.6 μM; 4d 36.9 μM, b49: 35.9 μM)): 31.39%"

# From publication PMC6017121, “New Thiazoline-Tetralin Derivatives and Biological Activity Evaluation” (Molecules : A Journal of Synthetic Chemistry and Natural …, 2018)
